From US20230414826A1, “FIBRIN HYDROGELS” (Mayo Foundation for Medical Education and Research, priority 2020, published 2023)

Biological target: T1, fibrinogen (Evicel) (Homo sapiens, UniProt P02671+P02675+P02679)
T1 construct: purchased Ethicon (Evicel Biologically Active Component 2)
T1 sequence (P02671 20-629 limits assumed): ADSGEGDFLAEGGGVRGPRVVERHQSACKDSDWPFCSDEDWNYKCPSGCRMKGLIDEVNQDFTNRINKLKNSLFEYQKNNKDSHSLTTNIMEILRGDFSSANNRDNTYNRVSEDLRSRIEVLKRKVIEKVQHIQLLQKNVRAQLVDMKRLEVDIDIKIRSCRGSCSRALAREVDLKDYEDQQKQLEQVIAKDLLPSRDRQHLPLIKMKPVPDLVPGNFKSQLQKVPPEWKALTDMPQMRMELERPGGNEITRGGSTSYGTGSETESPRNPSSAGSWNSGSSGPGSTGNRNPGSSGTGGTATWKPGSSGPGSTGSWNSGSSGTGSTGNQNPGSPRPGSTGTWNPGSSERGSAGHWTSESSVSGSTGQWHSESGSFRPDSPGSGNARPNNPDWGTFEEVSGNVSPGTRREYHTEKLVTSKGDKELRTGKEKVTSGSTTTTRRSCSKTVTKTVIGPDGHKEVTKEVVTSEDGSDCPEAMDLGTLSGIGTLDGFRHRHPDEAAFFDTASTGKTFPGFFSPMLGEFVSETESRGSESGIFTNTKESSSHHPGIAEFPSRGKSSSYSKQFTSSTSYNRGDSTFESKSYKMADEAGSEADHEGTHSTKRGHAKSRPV
T1 sequence (P02675 31-491): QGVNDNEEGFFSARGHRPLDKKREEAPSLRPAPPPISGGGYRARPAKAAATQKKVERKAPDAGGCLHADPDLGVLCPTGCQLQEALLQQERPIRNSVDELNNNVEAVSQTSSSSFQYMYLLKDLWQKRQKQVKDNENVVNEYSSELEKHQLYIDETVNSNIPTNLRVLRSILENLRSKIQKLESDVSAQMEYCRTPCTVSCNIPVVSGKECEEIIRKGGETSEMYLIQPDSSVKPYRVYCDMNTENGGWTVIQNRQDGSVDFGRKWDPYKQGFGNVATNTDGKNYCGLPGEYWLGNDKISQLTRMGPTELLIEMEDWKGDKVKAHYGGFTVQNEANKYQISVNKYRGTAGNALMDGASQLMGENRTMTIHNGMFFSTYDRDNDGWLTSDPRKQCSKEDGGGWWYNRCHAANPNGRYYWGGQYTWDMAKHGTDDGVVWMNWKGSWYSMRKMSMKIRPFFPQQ
T1 sequence (P02679 27-433 limits assumed): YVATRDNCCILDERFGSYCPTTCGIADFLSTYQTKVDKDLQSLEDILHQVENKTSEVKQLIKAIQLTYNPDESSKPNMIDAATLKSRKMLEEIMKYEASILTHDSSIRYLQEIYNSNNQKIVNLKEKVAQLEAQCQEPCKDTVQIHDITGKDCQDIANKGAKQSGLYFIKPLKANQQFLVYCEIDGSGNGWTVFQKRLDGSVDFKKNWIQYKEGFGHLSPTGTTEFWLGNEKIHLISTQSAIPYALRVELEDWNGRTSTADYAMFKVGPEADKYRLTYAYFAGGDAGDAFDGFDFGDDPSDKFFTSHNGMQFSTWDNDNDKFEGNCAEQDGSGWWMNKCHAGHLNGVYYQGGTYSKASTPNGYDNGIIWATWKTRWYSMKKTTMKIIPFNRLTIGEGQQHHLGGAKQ
Test: Fibrinogen clotting assay with coagulation analyzer (Clauss method), tissue glue fibrinogen
Assay type: biochemical
Conditions: for Effect on Clotting Time: screen, multiple concentrations up to 4.58 mM; for gelation time (average clotting time): 4.58 mM additive in PBS, fixed 1:20 dilution of fibrinogen (Evicel), n=10

Compound	Effect on Clotting Time	gelation time (average clotting time) [s]	other results
Brilliant Blue R [BB, reference compound]	caused protein precipitation	–	Effect on Clotting Time (listed as Brilliant Blue R (BB)): Precip
Alcian Blue [AB, reference compound]	caused protein precipitation	–	Effect on Clotting Time (listed as Alcian Blue (AB)): Precip
Cc1cc(N=Nc2ccc(C)c(N=Nc3cc(C)c(N)cc3N)c2)c(N)cc1N.Cl.Cl [BBr, Bismarck Brown R, reference compound]	No effect	18.9 ± 3.3	–

More lines, main results first:

Effect on Clotting Time	gelation time (average clotting time) [s]	Compound	other results
No effect	18.5 ± 2.6	O=C([O-])c1ccccc1-c1c2ccc(=O)cc-2oc2cc([O-])ccc12.[Na+].[Na+] [SF, Sodium Fluorescein, reference compound]	–
caused protein precipitation	–	Nc1c(/N=N/c2ccc(-c3ccc(/N=N/c4cc(S(=O)(=O)O)c5ccccc5c4N)cc3)cc2)cc(S(=O)(=O)O)c2ccccc12 [CR, Congo Red, reference compound]	Effect on Clotting Time (listed as Congo Red (CR)): Precip
caused protein precipitation	–	CC1(C)C(/C=C/C=C/C=C/C=C2\N(CCCCS(=O)(=O)O)c3ccc4ccccc4c3C2(C)C)=[N+](CCCCS(=O)(=O)[O-])c2ccc3ccccc3c21 [ICG, Indocyanine Green, reference compound]	Effect on Clotting Time (listed as Indocyanine Green (ICG)): Precip
